Test results from patent US9290740B2, “Use of basic fibroblast growth factor in the de-differentiation of animal connective tissue cells” (Worcester Polytechnic Institute, priority 2008, dated 2016).

Test system: Nanog in CRL-2352 (ATCC) cells
Experiment: Effect of valproic acid on FGF2 de-differentiation (Nanog immunocytochemistry on glass coverslips)
Format: cell-based, human
Settings: 1.0 μM valproic acid with 4 ng/ml FGF2, glass coverslips, 5% O2, 6 days
Procedure: The effect of valproic acid on FGF2 de-differentiation was also studied. CRL-2352 (ATCC) cells (2000 cells per well in 24-well plates containing sterile 12 mm glass coverslips) were cultured in medium consisting of DMEM:Ham's F12 (60:40, MediaTech) with 10% Fetalclone III (Hyclone, Logan, Utah) and 4 ng/ml FGF2, with and without 1.0 μM valproic acid, in parallel cultures. Cultures were carried out in a 37° C. incubator in a humidified environment of 5% CO2, 5% O2, and 90% N2 for 6 days with medium changed at day 3. Cells were washed with DPBS and fixed with −20° C. methanol for 10 min, washed with PBS and processed for immunocytochemistry.

CCCC(CCC)C(=O)O [valproic acid]
nuclear staining for Nanog: increased nuclear staining for Nanog
